Assays:
Assay in all cases: KINOMEscan
Format in all cases: binding
Details in all cases: read-out: % control activity remaining
[1] = molecular target: T1, ABL1(F317L)-nonphosphorylated (Homo sapiens, UniProt P00519, F317L)
T1 construct: purchased Eurofins DiscoverX KINOMEscan

BMPR1A = molecular target: T2, BMPR1A (Homo sapiens, UniProt P36894)
T2 construct: purchased Eurofins DiscoverX KINOMEscan

CDK11 = molecular target: T3, CDK11 (Homo sapiens, UniProt Q9BWU1)
T3 construct: purchased Eurofins DiscoverX KINOMEscan
T3 sequence (Q9BWU1 whole entry): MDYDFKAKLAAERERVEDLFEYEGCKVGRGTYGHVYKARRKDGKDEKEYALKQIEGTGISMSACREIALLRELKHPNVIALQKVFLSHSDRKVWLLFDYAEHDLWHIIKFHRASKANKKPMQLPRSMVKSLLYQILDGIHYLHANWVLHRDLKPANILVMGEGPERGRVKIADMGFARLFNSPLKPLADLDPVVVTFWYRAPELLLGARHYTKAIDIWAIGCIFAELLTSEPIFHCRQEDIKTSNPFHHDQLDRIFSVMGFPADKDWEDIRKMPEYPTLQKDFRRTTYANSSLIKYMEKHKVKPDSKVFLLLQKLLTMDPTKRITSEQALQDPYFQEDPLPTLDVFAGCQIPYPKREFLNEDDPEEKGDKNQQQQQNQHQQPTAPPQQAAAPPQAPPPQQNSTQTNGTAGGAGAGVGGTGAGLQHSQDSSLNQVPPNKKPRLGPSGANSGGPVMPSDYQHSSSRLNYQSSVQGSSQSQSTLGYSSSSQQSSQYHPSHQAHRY

CLK2 = molecular target: T4, CLK2 (Homo sapiens, UniProt P49760)
T4 construct: purchased Eurofins DiscoverX KINOMEscan
T4 sequence (P49760 whole entry): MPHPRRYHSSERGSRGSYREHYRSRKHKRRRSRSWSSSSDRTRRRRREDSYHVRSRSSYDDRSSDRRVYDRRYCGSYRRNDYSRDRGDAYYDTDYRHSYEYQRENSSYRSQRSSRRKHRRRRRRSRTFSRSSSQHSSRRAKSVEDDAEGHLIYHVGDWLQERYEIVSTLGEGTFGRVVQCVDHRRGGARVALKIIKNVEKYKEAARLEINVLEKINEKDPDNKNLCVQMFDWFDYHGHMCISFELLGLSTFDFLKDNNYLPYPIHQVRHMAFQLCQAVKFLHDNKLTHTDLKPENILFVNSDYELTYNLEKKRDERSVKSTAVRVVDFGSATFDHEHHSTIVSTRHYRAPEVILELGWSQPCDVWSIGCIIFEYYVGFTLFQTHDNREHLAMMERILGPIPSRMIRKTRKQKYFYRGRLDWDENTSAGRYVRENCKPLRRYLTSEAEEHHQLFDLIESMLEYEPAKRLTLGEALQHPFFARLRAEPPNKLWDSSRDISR

DDR1 = molecular target: T5, DDR1 (Homo sapiens, UniProt Q08345)
T5 construct: purchased Eurofins DiscoverX KINOMEscan

LTK = molecular target: T6, LTK (Homo sapiens, UniProt P29376)
T6 construct: purchased Eurofins DiscoverX KINOMEscan

MAP3K1 = molecular target: T7, MAP3K1 (Homo sapiens, UniProt Q13233)
T7 construct: purchased Eurofins DiscoverX KINOMEscan
T7 sequence (Q13233 whole entry): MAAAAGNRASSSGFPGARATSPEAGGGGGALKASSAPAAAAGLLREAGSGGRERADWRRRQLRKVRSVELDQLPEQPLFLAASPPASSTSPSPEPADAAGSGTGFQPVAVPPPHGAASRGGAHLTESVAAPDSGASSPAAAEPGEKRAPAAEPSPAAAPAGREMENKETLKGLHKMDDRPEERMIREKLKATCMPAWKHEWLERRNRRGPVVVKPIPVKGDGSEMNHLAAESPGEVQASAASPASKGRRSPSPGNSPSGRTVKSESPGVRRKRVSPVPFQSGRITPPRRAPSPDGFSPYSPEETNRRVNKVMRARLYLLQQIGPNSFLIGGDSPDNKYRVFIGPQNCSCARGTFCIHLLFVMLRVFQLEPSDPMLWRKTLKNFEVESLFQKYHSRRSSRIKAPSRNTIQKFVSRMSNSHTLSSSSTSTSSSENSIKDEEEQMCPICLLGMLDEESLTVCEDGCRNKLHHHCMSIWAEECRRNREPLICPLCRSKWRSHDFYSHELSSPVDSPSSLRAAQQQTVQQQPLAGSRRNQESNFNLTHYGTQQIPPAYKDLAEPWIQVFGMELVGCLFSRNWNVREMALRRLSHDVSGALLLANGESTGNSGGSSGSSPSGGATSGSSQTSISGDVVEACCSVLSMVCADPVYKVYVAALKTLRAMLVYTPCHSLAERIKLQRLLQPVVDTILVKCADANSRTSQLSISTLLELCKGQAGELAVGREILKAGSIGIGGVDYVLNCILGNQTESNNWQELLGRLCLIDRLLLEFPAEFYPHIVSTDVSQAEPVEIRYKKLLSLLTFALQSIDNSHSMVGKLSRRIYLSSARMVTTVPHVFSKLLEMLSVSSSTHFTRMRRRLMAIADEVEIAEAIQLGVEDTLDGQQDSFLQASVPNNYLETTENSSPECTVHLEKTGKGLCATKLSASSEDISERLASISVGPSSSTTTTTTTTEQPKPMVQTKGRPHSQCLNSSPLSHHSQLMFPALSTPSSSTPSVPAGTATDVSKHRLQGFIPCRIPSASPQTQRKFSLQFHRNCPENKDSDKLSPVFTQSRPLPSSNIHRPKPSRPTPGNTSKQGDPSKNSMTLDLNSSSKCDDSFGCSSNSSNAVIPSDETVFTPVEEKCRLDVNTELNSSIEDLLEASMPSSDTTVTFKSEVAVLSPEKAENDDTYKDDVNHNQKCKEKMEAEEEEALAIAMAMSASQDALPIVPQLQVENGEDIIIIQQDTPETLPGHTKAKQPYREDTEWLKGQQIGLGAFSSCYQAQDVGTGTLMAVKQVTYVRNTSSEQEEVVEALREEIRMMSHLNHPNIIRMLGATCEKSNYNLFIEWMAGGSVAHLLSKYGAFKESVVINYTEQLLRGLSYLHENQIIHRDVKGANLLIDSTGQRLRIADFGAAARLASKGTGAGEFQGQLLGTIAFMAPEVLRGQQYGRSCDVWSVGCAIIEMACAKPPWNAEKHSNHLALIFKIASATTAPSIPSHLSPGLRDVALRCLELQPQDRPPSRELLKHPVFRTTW

MLK1 = molecular target: T8, MLK1 (Homo sapiens, UniProt P80192)
T8 construct: purchased Eurofins DiscoverX KINOMEscan

MST1R = molecular target: T9, MST1R (Homo sapiens, UniProt Q04912)
T9 construct: purchased Eurofins DiscoverX KINOMEscan

PIK3CA(M1043I) = molecular target: T10, PIK3CA(M1043I) (Homo sapiens, UniProt P42336, M1043I)
T10 construct: purchased Eurofins DiscoverX KINOMEscan
T10 sequence (P42336 whole entry M1043I): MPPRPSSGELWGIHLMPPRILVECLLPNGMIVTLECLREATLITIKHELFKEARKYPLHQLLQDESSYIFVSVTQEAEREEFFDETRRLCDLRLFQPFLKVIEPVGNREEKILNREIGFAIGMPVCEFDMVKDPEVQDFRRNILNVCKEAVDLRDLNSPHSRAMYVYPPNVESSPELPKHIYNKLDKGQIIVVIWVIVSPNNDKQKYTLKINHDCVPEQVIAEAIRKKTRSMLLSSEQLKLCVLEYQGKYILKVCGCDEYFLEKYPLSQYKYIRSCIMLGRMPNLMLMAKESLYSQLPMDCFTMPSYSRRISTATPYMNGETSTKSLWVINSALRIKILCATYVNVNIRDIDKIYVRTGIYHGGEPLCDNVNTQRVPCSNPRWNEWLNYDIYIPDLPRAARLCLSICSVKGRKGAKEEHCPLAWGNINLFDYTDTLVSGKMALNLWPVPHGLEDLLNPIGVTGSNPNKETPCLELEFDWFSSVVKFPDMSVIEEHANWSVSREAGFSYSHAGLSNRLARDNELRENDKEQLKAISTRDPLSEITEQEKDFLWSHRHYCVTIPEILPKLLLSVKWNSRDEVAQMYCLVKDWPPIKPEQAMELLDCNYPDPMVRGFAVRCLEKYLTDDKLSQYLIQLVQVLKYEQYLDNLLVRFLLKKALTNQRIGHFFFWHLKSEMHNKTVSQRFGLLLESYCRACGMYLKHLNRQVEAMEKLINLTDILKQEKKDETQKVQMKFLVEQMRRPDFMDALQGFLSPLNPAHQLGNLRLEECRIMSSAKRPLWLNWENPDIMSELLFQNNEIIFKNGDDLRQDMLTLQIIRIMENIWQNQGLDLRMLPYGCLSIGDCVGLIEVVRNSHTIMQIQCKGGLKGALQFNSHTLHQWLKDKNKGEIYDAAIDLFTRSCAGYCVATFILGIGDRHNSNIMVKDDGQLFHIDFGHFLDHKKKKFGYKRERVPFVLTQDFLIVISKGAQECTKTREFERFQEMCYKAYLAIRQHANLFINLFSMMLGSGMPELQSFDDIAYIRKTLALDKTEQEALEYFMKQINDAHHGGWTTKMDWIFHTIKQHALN

PIM2 = molecular target: T11, PIM2 (Homo sapiens, UniProt Q9P1W9)
T11 construct: purchased Eurofins DiscoverX KINOMEscan
T11 sequence (Q9P1W9 whole entry): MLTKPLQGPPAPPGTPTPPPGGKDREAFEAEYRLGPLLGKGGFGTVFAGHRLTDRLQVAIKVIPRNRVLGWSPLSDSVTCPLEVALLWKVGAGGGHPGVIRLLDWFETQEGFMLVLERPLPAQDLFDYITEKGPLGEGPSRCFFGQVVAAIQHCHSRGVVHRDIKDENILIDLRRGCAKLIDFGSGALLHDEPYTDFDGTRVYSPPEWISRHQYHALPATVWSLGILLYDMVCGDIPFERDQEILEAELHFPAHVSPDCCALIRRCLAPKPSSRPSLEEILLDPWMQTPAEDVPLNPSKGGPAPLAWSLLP

PRKD3 = molecular target: T12, PRKD3 (Homo sapiens, UniProt O94806)
T12 construct: purchased Eurofins DiscoverX KINOMEscan
T12 sequence (O94806 1-890): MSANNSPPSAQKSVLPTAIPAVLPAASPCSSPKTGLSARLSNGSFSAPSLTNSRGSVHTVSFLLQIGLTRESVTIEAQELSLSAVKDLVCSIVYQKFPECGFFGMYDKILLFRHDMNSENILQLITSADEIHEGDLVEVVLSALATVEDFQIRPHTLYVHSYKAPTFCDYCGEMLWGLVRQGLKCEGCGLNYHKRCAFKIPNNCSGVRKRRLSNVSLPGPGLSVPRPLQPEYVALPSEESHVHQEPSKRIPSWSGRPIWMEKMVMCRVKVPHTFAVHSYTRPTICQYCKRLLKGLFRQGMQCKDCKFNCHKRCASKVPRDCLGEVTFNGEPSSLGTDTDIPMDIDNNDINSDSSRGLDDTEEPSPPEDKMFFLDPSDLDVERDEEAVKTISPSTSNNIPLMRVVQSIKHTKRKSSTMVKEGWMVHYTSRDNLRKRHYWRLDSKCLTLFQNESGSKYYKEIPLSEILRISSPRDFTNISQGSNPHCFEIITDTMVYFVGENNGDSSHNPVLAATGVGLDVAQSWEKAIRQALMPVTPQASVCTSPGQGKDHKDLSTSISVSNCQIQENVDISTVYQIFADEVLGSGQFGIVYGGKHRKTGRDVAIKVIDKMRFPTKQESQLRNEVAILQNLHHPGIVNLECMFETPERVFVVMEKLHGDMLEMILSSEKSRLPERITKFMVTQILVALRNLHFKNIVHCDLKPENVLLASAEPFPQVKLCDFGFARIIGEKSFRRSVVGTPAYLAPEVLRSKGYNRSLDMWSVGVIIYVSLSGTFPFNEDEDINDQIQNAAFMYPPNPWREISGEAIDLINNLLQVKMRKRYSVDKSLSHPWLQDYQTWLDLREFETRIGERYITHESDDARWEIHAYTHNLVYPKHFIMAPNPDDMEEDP

RIOK3 = molecular target: T13, RIOK3 (Homo sapiens, UniProt O14730)
T13 construct: purchased Eurofins DiscoverX KINOMEscan
T13 sequence (O14730 1-519): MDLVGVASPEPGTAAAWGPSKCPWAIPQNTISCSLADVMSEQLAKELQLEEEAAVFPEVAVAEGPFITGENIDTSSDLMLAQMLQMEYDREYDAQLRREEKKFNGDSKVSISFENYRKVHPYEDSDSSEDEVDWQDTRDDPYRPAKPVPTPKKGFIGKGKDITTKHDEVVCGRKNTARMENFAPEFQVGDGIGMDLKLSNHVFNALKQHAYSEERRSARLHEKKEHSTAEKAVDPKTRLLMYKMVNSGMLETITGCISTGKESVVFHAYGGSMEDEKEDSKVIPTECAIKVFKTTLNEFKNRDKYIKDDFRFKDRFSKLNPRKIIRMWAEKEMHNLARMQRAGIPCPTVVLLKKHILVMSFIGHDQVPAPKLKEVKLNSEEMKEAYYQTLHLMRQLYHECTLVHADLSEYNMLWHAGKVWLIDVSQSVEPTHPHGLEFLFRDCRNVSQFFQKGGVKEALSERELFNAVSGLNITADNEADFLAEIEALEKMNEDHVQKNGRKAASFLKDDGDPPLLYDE

TTK = molecular target: T14, TTK (Homo sapiens, UniProt P33981)
T14 construct: purchased Eurofins DiscoverX KINOMEscan
T14 sequence (P33981 1-857): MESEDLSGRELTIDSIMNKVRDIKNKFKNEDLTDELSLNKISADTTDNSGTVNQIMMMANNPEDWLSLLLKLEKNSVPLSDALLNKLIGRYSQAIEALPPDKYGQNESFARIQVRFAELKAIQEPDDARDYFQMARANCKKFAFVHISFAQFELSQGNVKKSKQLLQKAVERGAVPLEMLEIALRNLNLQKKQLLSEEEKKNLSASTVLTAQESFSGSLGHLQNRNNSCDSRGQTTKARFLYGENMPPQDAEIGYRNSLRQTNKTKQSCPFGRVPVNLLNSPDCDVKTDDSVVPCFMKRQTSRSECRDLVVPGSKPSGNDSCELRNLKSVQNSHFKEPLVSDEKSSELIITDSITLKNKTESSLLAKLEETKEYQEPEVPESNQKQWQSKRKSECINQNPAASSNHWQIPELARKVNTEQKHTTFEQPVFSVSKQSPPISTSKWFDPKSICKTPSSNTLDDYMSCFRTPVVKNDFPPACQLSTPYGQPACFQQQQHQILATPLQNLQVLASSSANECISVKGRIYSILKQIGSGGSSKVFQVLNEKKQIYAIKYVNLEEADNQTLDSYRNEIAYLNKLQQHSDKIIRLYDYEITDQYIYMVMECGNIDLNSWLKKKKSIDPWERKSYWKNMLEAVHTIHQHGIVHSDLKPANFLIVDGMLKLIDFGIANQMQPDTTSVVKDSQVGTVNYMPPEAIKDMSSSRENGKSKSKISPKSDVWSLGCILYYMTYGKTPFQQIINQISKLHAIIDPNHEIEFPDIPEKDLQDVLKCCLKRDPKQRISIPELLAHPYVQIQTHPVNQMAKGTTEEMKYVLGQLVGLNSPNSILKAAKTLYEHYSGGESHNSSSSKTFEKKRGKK

T2 sequence (P36894 24-532): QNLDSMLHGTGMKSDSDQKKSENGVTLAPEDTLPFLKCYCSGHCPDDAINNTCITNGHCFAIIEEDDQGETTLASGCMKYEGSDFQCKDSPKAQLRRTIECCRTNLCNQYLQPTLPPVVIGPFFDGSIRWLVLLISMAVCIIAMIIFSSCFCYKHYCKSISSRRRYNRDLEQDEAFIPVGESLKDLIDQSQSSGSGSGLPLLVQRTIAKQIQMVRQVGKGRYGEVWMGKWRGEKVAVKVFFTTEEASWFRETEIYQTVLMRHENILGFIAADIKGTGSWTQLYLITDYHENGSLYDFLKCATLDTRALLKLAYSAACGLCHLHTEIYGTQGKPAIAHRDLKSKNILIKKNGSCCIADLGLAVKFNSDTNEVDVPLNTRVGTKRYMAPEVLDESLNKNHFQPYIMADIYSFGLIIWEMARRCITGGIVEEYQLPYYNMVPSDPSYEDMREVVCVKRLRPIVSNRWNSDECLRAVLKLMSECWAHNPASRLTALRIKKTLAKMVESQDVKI

Row | Compound | remaining binding at 1 µM [1] [%] | remaining binding at 1 µM (BMPR1A) [%] | remaining binding at 1 µM (CDK11) [%] | remaining binding at 1 µM (CLK2) [%] | remaining binding at 1 µM (DDR1) [%] | remaining binding at 1 µM (LTK) [%] | remaining binding at 1 µM (MAP3K1) [%] | remaining binding at 1 µM (MLK1) [%] | remaining binding at 1 µM (MST1R) [%] | remaining binding at 1 µM (PIK3CA(M1043I)) [%] | remaining binding at 1 µM (PIM2) [%] | remaining binding at 1 µM (PRKD3) [%] | remaining binding at 1 µM (RIOK3) [%] | remaining binding at 1 µM (TTK) [%]
1 | Clc1cc(NCC2CC2)c2ncc(-c3ccc4[nH]ncc4c3)n2n1 [compound 2, 6-Chloro-N-(cyclopropylmethyl)-3-(1H-indazol-5-yl)imidazo[1,2-b]pyridazin-8-amine] | 68 | 95 | 97 | 9.6 | 22 | 100 | 99 | 85 | 99 | 59 | 100 | 98 | 31 | 77
2 | O=C(CN1CCOCC1)N[C@H]1CC[C@H](Nc2cc(Cl)nn3c(-c4ccc5[nH]ncc5c4)cnc23)CC1 [compound 26] | 26 | 86 | 98 | 4.2 | 100 | 88 | 92 | 100 | 64 | 81 | 100 | 94 | 32 | 54
3 | CN1CCC(CNc2cc(Cl)nn3c(-c4cc5nc(Nc6ccccc6)[nH]c5cc4F)cnc23)CC1 [compound 31, 6-Chloro-3-(6-fluoro-2-(phenylamino)-1H-benzo[d]imidazol-5-yl)-N-((1-methylpiperidin-4-yl)methyl)imidazo[1,2-b]pyridazin-8-amine] | 76 | 100 | 91 | 79 | 96 | 88 | 89 | 93 | 77 | 78 | 100 | 100 | 94 | 90

Reference: PMC6437697 (Journal of Medicinal Chemistry, 2019)
